Tested on: A-375, PC-3, HCT-116 tumor cell lines
Assay: LDH release assay and xCELLigence, FLU peptide immunoconjugate
Format: cell-based, human
Conditions: xCELLigence, 6, 10 and 18 hours

CTELKLSDY [free peptide] was tested, and the “tumor cell killing over the course of time” value was “usually decreased in higher incubation times”.

— US20180078655A1, “IMMUNOCONJUGATES FOR SPECIFIC INDUCTION OF T CELL CYTOTOXICITY AGAINST A TARGET CELL” (priority 2015, published 2018)
